This assay has as its target human OX2R (Homo sapiens (Human), UniProt O43614). The experiment in a line: IPOne (IP-1) assay in CHO cells expressing human OX2R. Type of assay: cell-based. Particulars: for Emax: CHO; for IC50: CHO cells expressing human OX2R, IP-One detection, 2 hours incubation, EC50 = inflection point of four parameter logistic fit, read-out: hOX2R_IP_IC50. The gist of the method:
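CHO cells stably expressing human OX2R were stimulated with compound (10-point ½-log dilutions) for 2 h at 37 °C. IP-1 accumulation was read by HTRF (IP-One, 665/620 nm). EC50 from a four-parameter fit; % effect relative to 1 μM reference agonist control.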

Where [1] appears, read: percentage of mean max effect of a reference compound at 1 uM (100% activity by comparison to Orexin A), human OX2R, read-out: Emax (%).
[2] abbreviates: percentage of mean max effect of a reference compound at 1 uM (100% activity by comparison to Orexin A), human OX2R.

This is an account of results in patent publication US11680060B2, “Bicycloheptane pyrrolidine orexin receptor agonists” (Merck Sharp & Dohme LLC, priority 2020, dated 2023).

Read-outs that look alike come from different tables or passages of the source.

Chain of human OX2R (O43614 whole entry): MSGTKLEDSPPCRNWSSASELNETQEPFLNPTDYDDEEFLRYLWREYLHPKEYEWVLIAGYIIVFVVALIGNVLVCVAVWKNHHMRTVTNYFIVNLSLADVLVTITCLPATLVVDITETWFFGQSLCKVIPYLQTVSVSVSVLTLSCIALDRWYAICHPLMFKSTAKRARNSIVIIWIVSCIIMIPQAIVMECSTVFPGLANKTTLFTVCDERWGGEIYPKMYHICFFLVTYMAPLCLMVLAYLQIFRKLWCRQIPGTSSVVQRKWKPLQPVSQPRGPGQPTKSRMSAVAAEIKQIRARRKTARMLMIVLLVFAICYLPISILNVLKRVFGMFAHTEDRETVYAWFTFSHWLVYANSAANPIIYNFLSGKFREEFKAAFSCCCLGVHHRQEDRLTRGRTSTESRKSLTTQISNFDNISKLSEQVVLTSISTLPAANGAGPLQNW

The Emax is the size of the effect at its maximum, as opposed to the concentration needed. Consider `COC(=O)N1[C@H](C)C[C@H](NS(=O)(=O)CF)[C@@H]1CO[C@H]1CC[C@@]2(c3ncc(F)cn3)C[C@H]2C1` [Example 30, methyl (2R,3S,5R)-3-((fluoromethyl)sulfonamido)-2-((((1S,3S,6R)-6-(5-fluoropyrimidin-2-yl)bicyclo[4.1.0]heptan-3-yl)oxy)methyl)-5-methylpyrrolidine-1-carboxylate], for which the Emax under setting [1] worked out at 99.2%. In the case of `CC(C)OC(=O)N1[C@H](C)C[C@H](NS(=O)(=O)N(C)C)[C@@H]1COC1CCC2(c3ncccn3)CC2C1` (stereo partly drawn) [Example 174, isopropyl (2R,3S,5R)-3-((N,N-dimethylsulfamoyl)amino)-5-methyl-2-(((6-(pyrimidin-2-yl)bicyclo[4.1.0]heptan-3-yl)oxy)methyl)pyrrolidine-1-carboxylate], the Emax under setting [1] came to 95.4%. In the case of `CCS(=O)(=O)N[C@H]1C[C@@H](C(F)F)N(C(=O)OC)[C@H]1CO[C@H]1CC[C@@]2(c3ncc(Cl)cn3)C[C@H]2C1` (single isomer, unassigned) [Example 114], the IC50 amounted to 1.4 nM. For the same compound, the Emax under setting [1] worked out at 98.6%. With `CC(C)OC(=O)N1[C@H](C)C[C@H](NS(=O)(=O)C(F)F)[C@@H]1COC1CCC2(c3ncc(Cl)cn3)CC2C1` (stereo partly drawn) [Example 82, isopropyl (2R,3S,5R)-2-(((6-(5-chloropyrimidin-2-yl)bicyclo[4.1.0]heptan-3-yl)oxy)methyl)-3-((difluoromethyl)sulfonamido)-5-methylpyrrolidine-1-carboxylate], the Emax under setting [1] was 102%. Still for that read-out and setting: with `COC(=O)N1[C@H](C)C[C@H](NS(=O)(=O)C(C)C)[C@@H]1CO[C@@H]1CC[C@]2(c3ncc(F)cn3)C[C@@H]2C1` [Example 46, methyl (2R,3S,5R)-2-((((1R,3R,6S)-6-(5-fluoropyrimidin-2-yl)bicyclo[4.1.0]heptan-3-yl)oxy)methyl)-5-methyl-3-((1-methylethyl)sulfonamido)pyrrolidine-1-carboxylate] the figure was 100%; with `COC(=O)N1CC[C@H](NS(C)(=O)=O)[C@@H]1COC1CCC2(c3ncccn3)CC2C1` (stereo partly drawn) [Example 185, methyl (2R,3S)-3-(methylsulfonamido)-2-(((6-(pyrimidin-2-yl)bicyclo[4.1.0]heptan-3-yl)oxy)methyl)pyrrolidine-1-carboxylate], 94.6%. On to `CC(C)OC(=O)N1[C@H](C)C[C@H](NS(C)(=O)=O)[C@@H]1COC1CCC2(c3ncc(Cl)cn3)CC2C1` (stereo partly drawn) [Example 154, isopropyl (2R,3S,5R)-2-(((6-(5-chloropyrimidin-2-yl)bicyclo[4.1.0]heptan-3-yl)oxy)methyl)-5-methyl-3-(methylsulfonamido)pyrrolidine-1-carboxylate], for which the Emax under setting [1] worked out at 101%. `CC(C)OC(=O)N1[C@H](C)C[C@H](NS(=O)(=O)N(C)C)[C@@H]1CO[C@@H]1CC[C@]2(c3ncc(F)cn3)C[C@@H]2C1` (single isomer, unassigned) [Example 160]: the IC50 came out at 1.6 nM. The Emax under setting [1] was determined as 102%. Regarding `CC(C)OC(=O)N1[C@H](C)C[C@H](NS(=O)(=O)C(F)F)[C@@H]1COC1CCC2(c3ncc(F)cn3)CC2C1` (stereo partly drawn) [Example 109, isopropyl (2R,3S,5R)-3-((difluoromethyl)sulfonamido)-2-(((6-(5-fluoropyrimidin-2-yl)bicyclo[4.1.0]heptan-3-yl)oxy)methyl)-5-methylpyrrolidine-1-carboxylate], under setting [1], the Emax was determined as 105%.

On to `COC(=O)N1[C@H](C)C[C@H](NS(=O)(=O)N(C)C)[C@@H]1COC1CCC2(c3cc(F)cc(F)c3)CC2C1` (stereo partly drawn) [Example 4, methyl (2R,3S,5R)-2-(((6-(3,5-difluorophenyl)bicyclo[4.1.0]heptan-3-yl)oxy)methyl)-3-((N,N-dimethylsulfamoyl)amino)-5-methylpyrrolidine-1-carboxylate], for which, under setting [1], the Emax was 97.3%. Still for that read-out and setting: next, `C[C@@H]1C[C@H](NS(C)(=O)=O)[C@H](CO[C@H]2CC[C@@]3(c4ncc(F)cn4)C[C@H]3C2)N1C(=O)OC[C@H]1C[C@H]1F` [Example 51, ((1R,2R)-2-fluorocyclopropyl)methyl (2R,3S,5R)-2-((((1S,3S,6R)-6-(5-fluoropyrimidin-2-yl)bicyclo[4.1.0]heptan-3-yl)oxy)methyl)-5-methyl-3-(methylsulfonamido)pyrrolidine-1-carboxylate]: 102%; `COC(=O)N1[C@H](C)C[C@H](NS(C)(=O)=O)[C@@H]1COC1CCC2(c3ncc(F)c(OC)n3)CC2C1` (stereo partly drawn) [Example 76, methyl (2R,3S,5R)-2-(((6-(5-fluoro-4-methoxypyrimidin-2-yl)bicyclo[4.1.0]heptan-3-yl)oxy)methyl)-5-methyl-3-(methylsulfonamido)pyrrolidine-1-carboxylate]: 101%. Regarding `CC(C)OC(=O)N1[C@H](C)C[C@H](NS(=O)(=O)CF)[C@@H]1COC1CCC2(c3ncc(F)cn3)CC2C1` (stereo partly drawn) [Example 111, isopropyl (2R,3S,5R)-3-((fluoromethyl)sulfonamido)-2-(((6-(5-fluoropyrimidin-2-yl)bicyclo[4.1.0]heptan-3-yl)oxy)methyl)-5-methylpyrrolidine-1-carboxylate], under setting [1], the Emax stood at 98.5%. As for `CC(C)OC(=O)N1[C@H](C)C[C@H](NS(=O)(=O)CF)[C@@H]1COC1CCC2(c3ncc(Cl)cn3)CC2C1` (stereo partly drawn) [Example 107, isopropyl (2R,3S,5R)-2-(((6-(5-chloropyrimidin-2-yl)bicyclo[4.1.0]heptan-3-yl)oxy)methyl)-3-((fluoromethyl)sulfonamido)-5-methylpyrrolidine-1-carboxylate], the Emax under setting [1] was 104%. Regarding `COC(=O)N1[C@H](C)C[C@H](NS(C)(=O)=O)[C@@H]1COC1CCC2(c3ncccn3)CC2C1` (single isomer, unassigned) [Example 17], the IC50 was found to be 2260 nM. In addition, the “Emax (%)” value under setting [2] is listed as 89.7%. Turning to `COC(=O)N1[C@H](C)C[C@H](NS(C)(=O)=O)[C@@H]1COC1CCC2(c3nc4c(F)ccc(F)c4s3)CC2C1` (stereo partly drawn) [Example 71, methyl (2R,3S,5R)-2-(((6-(4,7-difluorobenzo[d]thiazol-2-yl)bicyclo[4.1.0]heptan-3-yl)oxy)methyl)-5-methyl-3-(methylsulfonamido)pyrrolidine-1-carboxylate], the Emax under setting [1] amounted to 57.9%.

Turning to `COC(=O)N1[C@H](C)C[C@H](NS(=O)(=O)CF)[C@@H]1CO[C@H]1CC[C@@]2(c3ncc(Br)cn3)C[C@H]2C1` (single isomer, unassigned) [Example 87], the IC50 was found to be 2 nM. Moreover, the Emax under setting [1] amounted to 102%. For `CC(C)OC(=O)N1[C@H](C)C[C@H](NS(=O)(=O)N(C)C)[C@@H]1CO[C@H]1CC[C@@]2(c3ncc(F)cn3)C[C@H]2C1` (single isomer, unassigned) [Example 161] the same measures were 0.8 nM and 102%. Regarding `CC(C)OC(=O)N1[C@H](C)C[C@H](NS(C)(=O)=O)[C@@H]1CO[C@@H]1CC[C@]2(c3ncc(Cl)cn3)C[C@@H]2C1` (single isomer, unassigned) [Example 150], the IC50 was determined as 19.6 nM. Moreover, the Emax under setting [1] was 102%. Regarding `COC(=O)N1[C@H](C)C[C@H](NS(=O)(=O)CF)[C@@H]1CO[C@H]1CC[C@@]2(c3ncc(F)c(OC)n3)C[C@H]2C1` [Example 83, methyl (2R,3S,5R)-2-((((1S,3S,6R)-6-(5-fluoro-4-methoxypyrimidin-2-yl)bicyclo[4.1.0]heptan-3-yl)oxy)methyl)-3-((fluoromethyl)sulfonamido)-5-methylpyrrolidine-1-carboxylate], the IC50 turned out to be 7.6 nM. In addition, under setting [1], the Emax was 100%. In the case of `COC(=O)N1[C@@H]2CCC[C@@H]2[C@H](NS(=O)(=O)C2CC2)[C@@H]1COC1CCC2(c3ncc(F)cn3)CC2C1` (stereo partly drawn) [Example 128, methyl (2R,3S,3aS,6aR)-3-(cyclopropanesulfonamido)-2-(((6-(5-fluoropyrimidin-2-yl)bicyclo[4.1.0]heptan-3-yl)oxy)methyl)hexahydrocyclopenta[b]pyrrole-1(2H)-carboxylate], the Emax under setting [1] is 100%. With `COC(=O)N1[C@H](C)C[C@H](NS(C)(=O)=O)[C@@H]1COC1CCC2(c3ncc(Cl)c(OC)n3)CC2C1` (stereo partly drawn) [Example 70, methyl (2R,3S,5R)-2-(((6-(5-chloro-4-methoxypyrimidin-2-yl)bicyclo[4.1.0]heptan-3-yl)oxy)methyl)-5-methyl-3-(methylsulfonamido)pyrrolidine-1-carboxylate], the Emax came out at 101% and the IC50 was 33.5 nM. For `CCC(C)S(=O)(=O)N[C@H]1C[C@@H](C)N(C(=O)OC)[C@H]1CO[C@H]1CC[C@@]2(c3ncc(F)cn3)C[C@H]2C1` (stereo partly drawn) [Example 41, methyl (2R,3S,5R)-2-((((1S,3S,6R)-6-(5-fluoropyrimidin-2-yl)bicyclo[4.1.0]heptan-3-yl)oxy)methyl)-5-methyl-3-((1-methylpropyl)sulfonamido)pyrrolidine-1-carboxylate], the Emax under setting [1] amounted to 104%.

As to `COC(=O)N1[C@H](C)C[C@H](NS(C)(=O)=O)[C@@H]1COC1CCC2(c3ncccn3)CC2C1` (stereo partly drawn) [Example 184, methyl (2R,3S,5R)-5-methyl-3-(methylsulfonamido)-2-(((6-(pyrimidin-2-yl)bicyclo[4.1.0]heptan-3-yl)oxy)methyl)pyrrolidine-1-carboxylate], the Emax under setting [1] stood at 102%. Regarding `COC(=O)N1CC[C@H](NS(C)(=O)=O)[C@@H]1CO[C@@H]1CC[C@]2(c3ncccn3)C[C@@H]2C1` (single isomer, unassigned) [Example 25], the “Emax (%)” value under setting [2] is 94.7%.

Turning to `CC(C)OC(=O)N1CCC[C@H](NS(=O)(=O)CF)[C@@H]1CO[C@H]1CC[C@@]2(c3ncc(F)cn3)C[C@H]2C1` (single isomer, unassigned) [Example 124], the IC50 was found to be 0.37 nM. Further, the Emax under setting [1] was determined as 99.3%.
